Assay [1] has as its system Hepatoma cell line. The assay is described as follows: Antiviral activity against hepatitis B virus in human hepatoma cell line (2.2.15 cells). Format: functional, cell-based.
The subject of assay [2] is CCRF-CEM. The assay is described as follows: Cytotoxicity in H1 CEM cells. Format: functional, cell-based. As to conditions: Homo sapiens.
For assay [3], the system named is CCRF-CEM. The assay is described as follows: Compound was evaluated for cytotoxicity by inhibition of mitochondrial DNA synthesis. As to conditions: Homo sapiens. Format: functional, cell-based.
Assay [4] in a line: Selectivity measured as the ratio between IC50 value and EC50 value. The format is functional.

As for `O=c1[nH]c(=O)n([C@H]2CO[C@@H](CO)O2)cc1F`, in assay [1], the EC50 is greater than 5 µM.
Consider `Nc1ccn([C@@H]2CO[C@H](CO)O2)c(=O)n1` [TROXACITABINE], for which the IC50 in assay [2] is 0.056 µM; in assay [3], greater than 1 µM. In assay [1], this compound displayed an EC50 of 0.0005 µM.
For `Nc1ccn([C@@H]2CS[C@H](CO)O2)c(=O)n1` [LAMIVUDINE], the IC50 in assay [2] and in assay [3] was 50 µM each time. The same compound showed an EC50 in assay [1] of 0.01 µM.
In assay [1], `O=c1ccn([C@H]2CO[C@@H](CO)O2)c(=O)[nH]1` returned an EC50 greater than 20 µM.
For the compound `Nc1ccn([C@H]2CO[C@H](CO)O2)c(=O)n1`, the IC50 in assay [2] and in assay [3] was greater than 50 µM in each case. For the same compound, the EC50 in assay [1] was greater than 5 µM.
In assay [1], `O=c1[nH]c(=O)n([C@H]2CO[C@@H](CO)O2)cc1Br` gave an EC50 greater than 5 µM.
The compound `Nc1ccn([C@@H]2CO[C@@H](CO)O2)c(=O)n1` registered an EC50 in assay [1] of 5 µM.
On to `Nc1ccn([C@H]2CO[C@@H](CO)O2)c(=O)n1`, for which the IC50 is 2.4 µM in assay [2] and greater than 10 µM in assay [3]. In assay [4], the Selectivity was found to be 240. A half-maximal response in assay [1] (EC50) required 0.01 µM.

For the origin of these results see ChEMBL document CHEMBL1128808, “Dioxolane cytosine nucleosides as anti-hepatitis B agents” (Bioorg Med Chem Lett, 1995).
